Marks after values point to notes of the source that are not given here.
What was measured:
[1] = tested on: HaCaT (Human keratinocyte) cell line; experiment: Mitochondrial membrane potential by JC-1 assay; type: cell-based; conditions: 20 h
Experimental: For testing Apoptosis the Human Keratinocytes (HaCaT) cell line has been employed. The growth conditions are DMEM containing 1% FBS. […] Test concentration range is IS181 is tested at the highest (Qualitative analysis) effective concentrations selected on the basis of Quantitative JC-1 assay. The method of estimation is Mitochondrial membrane depolarization by JC-1 assay (Early apoptosis), LDH enzyme release (Necrosis). Treatment regimen & time points are JC-1 assay—Single addition, 20 h; LDH assay—Single addition, 24 h; Positive control: Triton-X-100, Doxorubicin-hydrochloride
Quantitative effect on Δψm (Red fluorescence/Green fluorescence) in HaCaT cells post 20 hours of treatment. […] Evaluation (Qualitative and quantitative) of differential JC-1 staining in treated cells after 20 h on incubation with the test peptides.

[2] = tested on: Imiquimod (IMQ) induced psoriasis; experiment: Imiquimod (IMQ) induced psoriasis model; type: in vivo, BALB/C mice
Experimental: The Experiment was carried out in Imiquimod (IMQ) induced psoriasis model in mice. […] […] There was a trend in animals treated with IS-181 through s.c. in ear thickness (life phase), punch biopsy, spleen weight and histopathology. […] Thus, […] In the view of this, it may be worth to explore the potency of the peptide for the diseases where TNFα playing central role in pathogenesis.

[3] = tested on: Human Keratinocytes (HaCaT); experiment: TUNEL assay; type: cell-based; conditions: 48 h
Experimental: Cell lines: Human Keratinocytes (HaCaT); test item (TI): IS181; treatment regimen: treated twice (once after 24 hours)-48 hours; Concentration range: 100 6 g/ml-5000 6 g/ml. […] Cells were sera starved in 1% FBS for 24 hours. Cells were treated with IS181 for 24 hours. After 24 h, cells were again treated with IS181 for 24 hours. After 48 h of first treatment, cells were processed for TUNEL staining. Fold increase in apoptotic cells [TUNEL positive] was calculated with respect to untreated control cells. Positive control: Curcumin, Anthralin, Betullinic acid. […] No increase in TUNEL positive cells was observed from 100 μg/ml-2000 μg/ml.

[4] = tested on: Human endothelial cells (EA.hy 926); experiment: Inhibition of FBS stimulated endothelial cell proliferation (MTT); type: cell-based; conditions: for Absorbance (Mean ± SD) at 540 nm: EA.hy926, 10% FBS, 72 h
Experimental: Cell line: Human endothelial cells (EA.hy 926); test item: IS 181: treatment regimen: multiple additions (3)-72 hours; concentration range: 1 6 g/ml to 5000 6 g/ml (triplicate wells); sera condition: medium containing 10% FBS. […] The cells were then subjected to complete serum starvation. The cells were retreated with 10% FBS to stimulate cellular proliferation. […] Inhibition of FBS stimulated cell proliferation was measured using MTT assay. End point: percentage inhibition of FBS stimulated cell proliferation. Positive controls: anthralin; paclitaxel.

IL-6 = experiment: LPS stimulated IL-6 secretion in RAW264.7; type: cell-based, Mouse; conditions: for IL-6 % decrease with respect to LPS / IL-6 Conc (pg/ml): RAW264.7 + LPS, 24 h
Experimental: Effect on pro-inflammatory cytokines against LPS stimulation: TNF-α; IL-6; IL-1-β: Cell lines: Murine macrophage cell line (RAW264.7); test item: IS181; experimental steps: pretreatment of cells with TI for 2 hours; stimulation with LPS (100 ng/ml) for 24 hours; supernatant collection for cytokine analysis; concentration range: o.1 μg/ml-500 μg/ml (duplicate wells); Cytokines: TNF-α; IL-6; IL-1-β; Method of estimating cytokines: ELISA; positive control: dexamethasone.
Cell line: RAW264.7 (Mouse macrophages); TI treatment regimen: Pretreatment for 2 h; TI Concentration range: 0.1 μg/ml-500 μg/ml (duplicate wells); LPS stimulation: 100 ng/ml; Time point for supernatants collection: 24 h; Method of estimation: ELISA; Positive control: Dexamethasone

FLT1 (VEGFR1) = FLT1 (VEGFR1) (Homo sapiens, UniProt P17948); experiment: Biochemical kinase assay FLT1; conditions: cell free
Experimental: Test system: cell free assays; test items: IS181; concentrations tested: 1 ng/ml-5000 μg/ml; Kinases: a) Cell free assays: EGFR (ErbB1); FLT1 (VEGFR1); JAK1; JAK3 MAP2K1 (MEK1); PDGFRA (PDGFR alpha); PRKCA (PKC alpha); b) cell based assay: JAK-STAT.

FLT1 (VEGFR1), sequence (P17948 27-1338): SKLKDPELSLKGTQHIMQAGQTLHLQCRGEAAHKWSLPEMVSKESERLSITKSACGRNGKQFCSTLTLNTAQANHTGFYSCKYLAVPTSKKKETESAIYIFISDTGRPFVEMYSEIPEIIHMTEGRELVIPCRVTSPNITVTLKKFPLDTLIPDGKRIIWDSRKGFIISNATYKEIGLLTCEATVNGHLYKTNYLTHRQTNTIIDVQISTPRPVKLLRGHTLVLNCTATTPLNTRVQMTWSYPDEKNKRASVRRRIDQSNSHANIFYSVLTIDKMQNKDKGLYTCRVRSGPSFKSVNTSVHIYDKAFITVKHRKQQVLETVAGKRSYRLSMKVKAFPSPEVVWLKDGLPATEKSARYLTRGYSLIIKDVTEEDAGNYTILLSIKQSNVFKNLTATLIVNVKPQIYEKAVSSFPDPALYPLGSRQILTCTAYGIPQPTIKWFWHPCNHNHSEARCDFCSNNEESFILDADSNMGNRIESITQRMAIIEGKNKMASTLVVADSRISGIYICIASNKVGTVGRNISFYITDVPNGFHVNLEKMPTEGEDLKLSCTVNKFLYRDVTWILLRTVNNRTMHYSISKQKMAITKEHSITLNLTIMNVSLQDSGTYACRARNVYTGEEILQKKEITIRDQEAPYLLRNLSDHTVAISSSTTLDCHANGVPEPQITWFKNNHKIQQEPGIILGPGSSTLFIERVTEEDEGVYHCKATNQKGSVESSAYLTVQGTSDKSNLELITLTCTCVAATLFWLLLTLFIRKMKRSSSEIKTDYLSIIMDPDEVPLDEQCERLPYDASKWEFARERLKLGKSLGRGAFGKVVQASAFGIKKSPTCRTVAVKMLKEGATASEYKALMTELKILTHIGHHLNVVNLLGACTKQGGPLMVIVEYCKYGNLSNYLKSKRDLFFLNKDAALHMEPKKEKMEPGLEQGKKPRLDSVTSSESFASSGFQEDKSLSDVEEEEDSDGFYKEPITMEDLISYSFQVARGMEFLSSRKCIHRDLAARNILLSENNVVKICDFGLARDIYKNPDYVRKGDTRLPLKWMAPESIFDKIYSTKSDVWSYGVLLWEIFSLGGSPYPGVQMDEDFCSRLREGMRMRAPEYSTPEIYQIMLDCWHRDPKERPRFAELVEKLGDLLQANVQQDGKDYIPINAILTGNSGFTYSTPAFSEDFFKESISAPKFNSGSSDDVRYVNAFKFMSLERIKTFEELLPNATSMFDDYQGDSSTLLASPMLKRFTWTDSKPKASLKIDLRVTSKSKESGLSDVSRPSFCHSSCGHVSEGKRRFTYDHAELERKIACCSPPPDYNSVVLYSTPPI

- inhibition at 50 µg/mL (FLT1 (VEGFR1); 50 μg/ml): 44%
- inhibition at 100 µg/mL (FLT1 (VEGFR1); 100 μg/ml): -16%
- inhibition at 250 µg/mL (FLT1 (VEGFR1); 250 μg/ml): -28%
- inhibition at 500 µg/mL (FLT1 (VEGFR1); 500 μg/ml): -44%
- inhibition at 1000 µg/mL (FLT1 (VEGFR1); 1000 μg/ml): -110%
Substance: H-WVQRVVEKFLK-OH [IS181, H-Trp-Val-Gln-Arg-Val-Val-Glu-Lys-Phe-Leu-Lys-OH]
- Green fluorescence intensity (RFU) ([1]; 400 μg/ml): 13.67 ± 1.89 RFU
- Red fluorescence intensity (RFU) ([1]; 400 μg/ml): 134.33 ± 32.06 RFU
- Red fluorescence intensity/Green fluorescence intensity ([1]; 400 μg/ml): 9.83
- Green fluorescence intensity (RFU) ([1]; 475 μg/ml): 14.83 ± 3.54 RFU
- Red fluorescence intensity (RFU) ([1]; 475 μg/ml): 150.67 ± 11.31 RFU
- Red fluorescence intensity/Green fluorescence intensity ([1]; 475 μg/ml): 10.16
- Green fluorescence intensity (RFU) ([1]; 500 μg/ml): 14.5 ± 2.12 RFU
- Red fluorescence intensity (RFU) ([1]; 500 μg/ml): 152.83 ± 31.82 RFU
- Red fluorescence intensity/Green fluorescence intensity ([1]; 500 μg/ml): 10.54
- Green fluorescence intensity (RFU) ([1]; 750 μg/ml): 17.67 ± 4.24 RFU
- Red fluorescence intensity (RFU) ([1]; 750 μg/ml): 126.17 ± 6.36 RFU
- Red fluorescence intensity/Green fluorescence intensity ([1]; 750 μg/ml): 7.14
- decrease in mitochondrial membrane potential (R/G ratio) as compared to untreated cells ([1]; 750 μg/ml to 2 mg/ml): 34% to 88.6%
- Green fluorescence intensity (RFU) ([1]; 1000 μg/ml): ^#25.83 ± 5.42^ RFU
- Red fluorescence intensity (RFU) ([1]; 1000 μg/ml): ^#102.25 ± 4.60 ^ RFU
- Red fluorescence intensity/Green fluorescence intensity ([1]; 1000 μg/ml): 3.96
- Green fluorescence intensity (RFU) ([1]; 2000 μg/ml): #41.25 ± 15.20 RFU
- Red fluorescence intensity (RFU) ([1]; 2000 μg/ml): ^#50.58 ± 0.12^ RFU
- Red fluorescence intensity/Green fluorescence intensity ([1]; 2000 μg/ml): **1.23
- histopathology ear thickness ([2]; 0.3 mg/kg, s.c.): maximum reduction in ear thickness
- hyperkeratosis ([2]; 1.2 mg/kg i.m. and i.v.): reduction in hyperkeratosis
- reduction in IL-23 (ear homogenate) compared to disease control ([2]; BALB/C mice, 0.3 mg/kg): 62.35%
- reduction in TNFα (ear homogenate) compared to disease control ([2]; BALB/C mice, 0.3 mg/kg s.c.): 24.98%
- reduction in TNFα (ear homogenate) compared to disease control ([2]; BALB/C mice, 1.2 mg/kg i.m.): 21.28%
- dorsal skin thickness ([2]; across the groups except 0.6 mg/kg s.c. and 1.2 mg/kg i.m.): mild reduction in dorsal skin thickness, however which was not significant
- punch biopsy weight ([2]; across the groups except 1.2 mg/kg, i.m.): mild reduction in punch biopsy weight, however which was not significant
- IL-17A (ear homogenate) ([2]; across the treated groups): No changes in IL-17A
- clinical score ([2]; across the treated groups): No substantial changes in clinical score
- erythema index ([2]; across the treated groups): No changes in erythema index
- ear thickness (life phase) compared to disease control ([2]; s.c.): mild reduction in ear thickness
- edema compared to disease control ([2]; s.c. (1.2, 0.6 and 0.3 mg/kg)): reduction in edema
- inflammatory cells infiltration compared to disease control ([2]; s.c. (1.2, 0.6 and 0.3 mg/kg) and 1.2 mg/kg i.v.): reduction in inflammatory cells infiltration
- Rete peg proliferation ([2]; s.c. (at 1.2, 0.6 and 0.3, mg/kg)): reduction in Rete peg proliferation
- spleen weight ([2]; s.c. route, 1.2 mg/kg): maximum reduction in spleen weight, however which was not significant
- hyperkeratosis ([2]; s.c., 0.3 mg/kg): maximum effect
- increase in TUNEL positive cells ([3]; 100 μg/ml-2000 μg/ml): No increase
- increase in apoptotic cells (TUNEL positive population) vs untreated ([3]; 5000 μg/ml): 28.3%
- inhibition of FBS stimulated cell proliferation ([4]; EA.hy926, 5 μg/ml to 1000 μg/ml): significant inhibition
- cytotoxic effects ([4]; EA.hy926, 2000 μg/ml to 5000 μg/ml): cytotoxic effects
- Absorbance (Mean ± SD) at 540 nm ([4]; 1 μg/ml): 0.48 ± 0.006
- Absorbance (Mean ± SD) at 540 nm ([4]; 5 μg/ml): 0.45 ± 0.027
- Absorbance (Mean ± SD) at 540 nm ([4]; 10 μg/ml): 0.46 ± 0.012
- Absorbance (Mean ± SD) at 540 nm ([4]; 50 μg/ml): 0.41 ± 0.011
- Absorbance (Mean ± SD) at 540 nm ([4]; 100 μg/ml): 0.41 ± 0.012
- Absorbance (Mean ± SD) at 540 nm ([4]; 500 μg/ml): 0.33 ± 0.004
- Absorbance (Mean ± SD) at 540 nm ([4]; 1000 μg/ml): 0.22 ± 0.008
- Absorbance (Mean ± SD) at 540 nm ([4]; 2000 μg/ml): 0.09 ± 0.0003
- IL-6 inhibition as compared to LPS stimulated levels (IL-6; RAW264.7): good extent of TNF-α and IL-6 inhibition
- IL-6 % decrease with respect to LPS (IL-6; 0.1 μ/ml): 57.2%
- IL-6 Conc (pg/ml) (IL-6; 0.1 μ/ml): 908.7*** pg/ml
- IL-6 % decrease with respect to LPS (IL-6; 1 μ/ml): 41.2%
- IL-6 Conc (pg/ml) (IL-6; 1 μ/ml): 1248.3*** pg/ml
- IL-6 % decrease with respect to LPS (IL-6; 5 μ/ml): 26.3%
- IL-6 Conc (pg/ml) (IL-6; 5 μ/ml): 1565.9*** pg/ml
- IL-6 % decrease with respect to LPS (IL-6; 10 μ/ml): 76.4%
- IL-6 Conc (pg/ml) (IL-6; 10 μ/ml): 501.5*** pg/ml
- IL-6 % decrease with respect to LPS (IL-6; 100 μ/ml): 35.4%
- IL-6 Conc (pg/ml) (IL-6; 100 μ/ml): 1371.8*** pg/ml
- IL-6 % decrease with respect to LPS (IL-6; 500 μ/ml): 68.5%
- IL-6 Conc (pg/ml) (IL-6; 500 μ/ml): 669.1*** pg/ml
- inhibition of IL-6 secretion as compared to LPS treated cells (IL-6; RAW264.7, 0.1 μg/ml-500 μg/ml): 26.3%-76.4%
